Test results: ChEMBL document CHEMBL1909046, “DrugMatrix in vitro pharmacology data”

What was measured:
[1] = DRUGMATRIX: Calcium Channel Type L, Phenylalkylamine radioligand binding (ligand: [3H] (-)-Desmethoxyverapamil (D-888)); format: cell membranes, Rattus norvegicus, Wistar, Brain, Membrane; settings: Not Active = under 50% inhibition at 10 µM
[2] = DRUGMATRIX: GABAA, Muscimol, Central radioligand binding (ligand: [3H] Muscimol); format: cell membranes, Rattus norvegicus, Wistar, Brain, Membrane; settings: Not Active = under 50% inhibition at 10 µM
Mu-type opioid receptor = Mu-type opioid receptor (Homo sapiens, UniProt P35372); test: DRUGMATRIX: Opiate mu (OP3, MOP) radioligand binding (ligand: [3H] Diprenorphine); format: cell membranes, CHO-K1, Membrane; settings: Not Active = under 50% inhibition at 10 µM
Chain of Mu-type opioid receptor (P35372 whole entry): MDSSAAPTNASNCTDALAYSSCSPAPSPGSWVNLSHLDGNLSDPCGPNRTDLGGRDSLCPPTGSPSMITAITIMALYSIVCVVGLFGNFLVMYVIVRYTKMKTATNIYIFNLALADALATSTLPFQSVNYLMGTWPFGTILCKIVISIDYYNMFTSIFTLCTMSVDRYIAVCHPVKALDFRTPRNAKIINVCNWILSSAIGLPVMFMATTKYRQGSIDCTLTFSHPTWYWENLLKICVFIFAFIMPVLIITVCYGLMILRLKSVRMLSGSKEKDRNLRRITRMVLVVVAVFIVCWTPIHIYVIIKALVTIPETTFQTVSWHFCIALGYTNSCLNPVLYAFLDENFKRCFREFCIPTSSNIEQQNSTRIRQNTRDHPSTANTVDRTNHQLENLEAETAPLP

[3] = DRUGMATRIX: Potassium Channel [KATP] radioligand binding (ligand: [3H] Glyburide); format: cell membranes, Membrane; settings: hit-t15; Not Active = under 50% inhibition at 10 µM
Cytochrome P450 2A6 = target: T1, Cytochrome P450 2A6 (Homo sapiens, UniProt P11509); settings: bti-tn-5b1-4; also: in other assays of this panel Not Active means under 50% inhibition at 10 µM
T1 sequence (P11509 whole entry): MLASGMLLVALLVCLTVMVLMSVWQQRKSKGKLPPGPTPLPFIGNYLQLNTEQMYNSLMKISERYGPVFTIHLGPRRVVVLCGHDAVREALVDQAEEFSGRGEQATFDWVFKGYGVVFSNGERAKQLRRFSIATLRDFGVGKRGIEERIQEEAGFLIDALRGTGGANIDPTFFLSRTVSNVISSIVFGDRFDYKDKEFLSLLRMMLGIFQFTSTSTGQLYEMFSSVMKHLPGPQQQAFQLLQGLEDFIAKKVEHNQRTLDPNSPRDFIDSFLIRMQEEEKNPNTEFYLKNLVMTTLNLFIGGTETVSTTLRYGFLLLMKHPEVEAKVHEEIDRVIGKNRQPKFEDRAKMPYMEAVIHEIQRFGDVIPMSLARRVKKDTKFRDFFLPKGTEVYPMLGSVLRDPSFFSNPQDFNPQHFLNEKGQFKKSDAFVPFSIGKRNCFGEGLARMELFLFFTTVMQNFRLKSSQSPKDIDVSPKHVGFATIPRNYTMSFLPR

Cytochrome P450 2D6 = Cytochrome P450 2D6 (Homo sapiens, UniProt P10635); settings: bti-tn-5b1-4; also: in other assays of this panel Not Active means under 50% inhibition at 10 µM
Chain of Cytochrome P450 2D6 (P10635 whole entry): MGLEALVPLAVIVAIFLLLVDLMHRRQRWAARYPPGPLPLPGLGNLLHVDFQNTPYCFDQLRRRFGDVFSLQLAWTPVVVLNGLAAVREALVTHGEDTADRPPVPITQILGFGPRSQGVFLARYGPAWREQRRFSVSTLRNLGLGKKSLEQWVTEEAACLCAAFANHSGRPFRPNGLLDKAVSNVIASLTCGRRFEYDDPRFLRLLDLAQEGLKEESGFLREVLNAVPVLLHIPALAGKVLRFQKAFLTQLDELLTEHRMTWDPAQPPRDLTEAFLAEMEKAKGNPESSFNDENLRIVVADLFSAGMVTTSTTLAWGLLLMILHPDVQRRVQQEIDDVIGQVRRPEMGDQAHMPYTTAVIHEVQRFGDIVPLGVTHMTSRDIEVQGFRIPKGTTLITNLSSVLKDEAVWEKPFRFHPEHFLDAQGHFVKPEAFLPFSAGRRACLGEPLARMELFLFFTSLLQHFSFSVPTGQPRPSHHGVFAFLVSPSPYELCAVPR

[4] = target: Voltage-gated inwardly rectifying potassium channel KCNH2 (Homo sapiens, UniProt Q12809); settings: hek293; also: in other assays of this panel Not Active means under 50% inhibition at 10 µM
Chain of Voltage-gated inwardly rectifying potassium channel KCNH2 (Q12809 whole entry): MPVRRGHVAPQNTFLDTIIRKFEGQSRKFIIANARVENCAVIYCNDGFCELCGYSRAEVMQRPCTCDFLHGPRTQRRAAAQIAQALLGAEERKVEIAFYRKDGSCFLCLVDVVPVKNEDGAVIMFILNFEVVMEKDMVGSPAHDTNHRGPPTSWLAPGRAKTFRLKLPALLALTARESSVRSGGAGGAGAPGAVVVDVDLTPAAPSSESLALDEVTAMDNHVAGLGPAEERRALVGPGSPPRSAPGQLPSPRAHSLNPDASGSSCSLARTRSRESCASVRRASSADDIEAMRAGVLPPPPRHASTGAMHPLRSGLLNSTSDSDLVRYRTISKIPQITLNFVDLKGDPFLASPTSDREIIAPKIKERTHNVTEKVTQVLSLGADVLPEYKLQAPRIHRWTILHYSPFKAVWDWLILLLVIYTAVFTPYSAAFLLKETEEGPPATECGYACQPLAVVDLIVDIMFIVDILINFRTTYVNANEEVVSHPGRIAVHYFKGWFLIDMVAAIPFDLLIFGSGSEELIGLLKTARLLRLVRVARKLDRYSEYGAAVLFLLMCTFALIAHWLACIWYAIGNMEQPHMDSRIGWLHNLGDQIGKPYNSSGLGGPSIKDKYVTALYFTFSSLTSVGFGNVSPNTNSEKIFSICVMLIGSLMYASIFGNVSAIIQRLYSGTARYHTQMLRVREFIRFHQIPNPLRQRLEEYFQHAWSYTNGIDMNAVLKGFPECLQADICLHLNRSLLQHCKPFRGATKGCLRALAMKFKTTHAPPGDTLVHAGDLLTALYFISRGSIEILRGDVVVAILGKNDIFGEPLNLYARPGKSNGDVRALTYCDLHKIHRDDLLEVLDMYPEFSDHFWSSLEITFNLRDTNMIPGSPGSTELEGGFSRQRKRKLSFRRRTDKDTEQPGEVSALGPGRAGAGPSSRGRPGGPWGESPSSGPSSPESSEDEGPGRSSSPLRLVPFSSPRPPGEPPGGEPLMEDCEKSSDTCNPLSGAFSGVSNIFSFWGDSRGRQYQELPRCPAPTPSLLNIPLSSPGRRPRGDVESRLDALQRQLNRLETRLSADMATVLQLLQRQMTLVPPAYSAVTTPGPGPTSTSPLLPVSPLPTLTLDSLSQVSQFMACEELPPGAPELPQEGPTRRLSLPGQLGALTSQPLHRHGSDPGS

CCCNC(=O)NS(=O)(=O)c1ccc(Cl)cc1 [CHLORPROPAMIDE]
IC50 [1]: Not Active
Ki [1]: Not Active
IC50 [2]: Not Active
Ki [2]: Not Active
IC50 (Mu-type opioid receptor; cho-k1): Not Active
IC50 [3]: Not Active
Ki [3]: Not Active
IC50 (Cytochrome P450 2A6): Not Active
Ki (Cytochrome P450 2A6): Not Active
IC50 (Cytochrome P450 2D6): Not Active
Ki (Cytochrome P450 2D6): Not Active
IC50 [4]: Not Active
Ki [4]: Not Active

NS(=O)(=O)c1cc(C2(O)NC(=O)c3ccccc32)ccc1Cl (stereo unspecified) [CHLORTHALIDONE]
IC50 [1]: Not Active
Ki [1]: Not Active
IC50 [2]: Not Active
Ki [2]: Not Active
IC50 (Mu-type opioid receptor; cho-k1): Not Active
IC50 [3]: Not Active
Ki [3]: Not Active
IC50 (Cytochrome P450 2A6): Not Active
Ki (Cytochrome P450 2A6): Not Active
IC50 (Cytochrome P450 2D6): Not Active
Ki (Cytochrome P450 2D6): Not Active
IC50 [4]: Not Active
Ki [4]: Not Active

O=C(O)CC(O)(CC(=O)O)C(=O)O [CITRIC ACID]
IC50 [1]: Not Active
Ki [1]: Not Active
IC50 [2]: Not Active
Ki [2]: Not Active
IC50 (Mu-type opioid receptor; cho-k1): Not Active
IC50 [3]: Not Active
Ki [3]: Not Active
IC50 (Cytochrome P450 2A6): Not Active
Ki (Cytochrome P450 2A6): Not Active
IC50 (Cytochrome P450 2D6): Not Active
Ki (Cytochrome P450 2D6): Not Active
IC50 [4]: Not Active
Ki [4]: Not Active

CC(C)NCC(O)c1ccccc1Cl (stereo unspecified) [CLORPRENALINE]
IC50 [1]: Not Active
Ki [1]: Not Active
IC50 [2]: Not Active
Ki [2]: Not Active
IC50 (Mu-type opioid receptor; cho-k1): Not Active
IC50 [3]: Not Active
Ki [3]: Not Active
IC50 (Cytochrome P450 2A6): Not Active
Ki (Cytochrome P450 2A6): Not Active
IC50 (Cytochrome P450 2D6): Not Active
Ki (Cytochrome P450 2D6): Not Active
IC50 [4]: Not Active
Ki [4]: Not Active

CN1C[C@@H]2C[C@H]1CN2c1cc2c(cc1F)c(=O)c(C(=O)O)cn2C1CC1 [DANOFLOXACIN]
IC50 [1]: Not Active
Ki [1]: Not Active
IC50 [2]: Not Active
Ki [2]: Not Active
IC50 (Mu-type opioid receptor; cho-k1): Not Active
IC50 [3]: Not Active
Ki [3]: Not Active
IC50 (Cytochrome P450 2A6): Not Active
Ki (Cytochrome P450 2A6): Not Active
IC50 (Cytochrome P450 2D6): Not Active
Ki (Cytochrome P450 2D6): Not Active
IC50 [4]: Not Active
Ki [4]: Not Active

COc1cccc2c1C(=O)c1c(O)c3c(c(O)c1C2=O)C[C@@](O)(C(C)=O)C[C@@H]3O[C@H]1C[C@H](N)[C@H](O)[C@H](C)O1 [DAUNORUBICIN]
IC50 [1]: Not Active
Ki [1]: Not Active
IC50 [2]: Not Active
Ki [2]: Not Active
IC50 (Mu-type opioid receptor; cho-k1): Not Active
IC50 [3]: Not Active
Ki [3]: Not Active
IC50 (Cytochrome P450 2A6): Not Active
Ki (Cytochrome P450 2A6): Not Active
IC50 (Cytochrome P450 2D6): Not Active
Ki (Cytochrome P450 2D6): Not Active
IC50 [4]: Not Active
Ki [4]: Not Active

O=C(O)c1cc(-c2ccc(F)cc2F)ccc1O [DIFLUNISAL]
IC50 [1]: Not Active
Ki [1]: Not Active
IC50 [2]: Not Active
Ki [2]: Not Active
IC50 (Mu-type opioid receptor; cho-k1): Not Active
IC50 [3]: Not Active
Ki [3]: Not Active
IC50 (Cytochrome P450 2A6): Not Active
Ki (Cytochrome P450 2A6): Not Active
IC50 (Cytochrome P450 2D6): Not Active
Ki (Cytochrome P450 2D6): Not Active
IC50 [4]: Not Active
Ki [4]: Not Active

C[S+](C)[O-] [DIMETHYL SULFOXIDE]
IC50 [1]: Not Active
Ki [1]: Not Active
IC50 [2]: Not Active
Ki [2]: Not Active
IC50 (Mu-type opioid receptor; cho-k1): Not Active
IC50 [3]: Not Active
Ki [3]: Not Active
IC50 (Cytochrome P450 2A6): Not Active
Ki (Cytochrome P450 2A6): Not Active
IC50 (Cytochrome P450 2D6): Not Active
Ki (Cytochrome P450 2D6): Not Active
IC50 [4]: Not Active
Ki [4]: Not Active

CC1=NN(c2ccccc2)C(=O)C1 [EDARAVONE]
IC50 [1]: Not Active
Ki [1]: Not Active
IC50 [2]: Not Active
Ki [2]: Not Active
IC50 (Mu-type opioid receptor; cho-k1): Not Active
IC50 [3]: Not Active
Ki [3]: Not Active
IC50 (Cytochrome P450 2A6): Not Active
Ki (Cytochrome P450 2A6): Not Active
IC50 (Cytochrome P450 2D6): Not Active
Ki (Cytochrome P450 2D6): Not Active
IC50 [4]: Not Active
Ki [4]: Not Active

CC(C)C[C@H]1C(=O)N2CCC[C@H]2[C@]2(O)O[C@](NC(=O)[C@@H]3C=C4c5cccc6[nH]cc(c56)C[C@H]4N(C)C3)(C(C)C)C(=O)N12 [ERGOCRYPTINE]
IC50 [1]: Not Active
Ki [1]: Not Active
IC50 [2]: Not Active
Ki [2]: Not Active
Ki (Mu-type opioid receptor): 985 nM
IC50 (Mu-type opioid receptor; read-out: IC50): 2430 nM
IC50 [3]: Not Active
Ki [3]: Not Active
IC50 (Cytochrome P450 2A6): Not Active
Ki (Cytochrome P450 2A6): Not Active
IC50 (Cytochrome P450 2D6): Not Active
Ki (Cytochrome P450 2D6): Not Active
IC50 [4]: Not Active
Ki [4]: Not Active
